Experimental data taken from paper doi:10.1101/2021.11.15.468710v2 (biorxiv, 2021).
pIC50: −log10 of the molar value.

Biological target: intact V-ATPase (purified yeast V-ATPase) (Saccharomyces cerevisiae, UniProt P23968+P25515+P32563+P32842)
Test: enzyme-coupled ATPase assay
Assay type: biochemical

SMILES: CO/C1=C\C(C)=C\[C@@H](C)[C@@H](O)[C@@H](C)C/C(C)=C/C=C/[C@H](OC)[C@@H]([C@@H](C)[C@@H](O)[C@H](C)[C@@]2(O)C[C@@H](O)[C@H](C)[C@@H](C(C)C)O2)OC1=O [bafilomycin A1]
- pIC50: > 8.95
